For one assay, the system named is A. baumannii RCH-69. Briefly: Mouse model of A. baumannii pneumonia, Study 3: survival. Particulars: neutropenic C3H/HeN mice, q 8 h I.P. 3 days, compound (I) 200 mg/kg, meropenem 50 mg/kg, colistin 125000 Ul/kg. It is filed as in vivo, Acinetobacter baumannii. The protocol: The bacterial inoculum was prepared in order to obtain a suspension containing 10^8 CFU/mL of Acinetobacter baumannii in saline.
Experimentations were performed with six-week old female C3H/HeN mice (18-20 g, Breeding Centre JANVIER (Ile saint Genest Mayenne 53)) because of their particular susceptibility to Acinetobacter baumannii and the reproducibility of the results (inbreeding in the breed). Each mouse was individually marked and housed in cages containing five animals/cage under ventilated and controlled (temperature and humidity) atmosphere.
The mice were rendered transiently neutropenic by 2 intra-peritoneal (IP) injections of 150 μL of cyclophosphamide (Endoxan® 150 mg/kg) 4 (D-4) and 3 (D-3) days before the Acinetobacter baumannii inoculation (Day 0). This transient immunosuppression was sufficient to facilitate the development of the A. baumannii pneumonia while allowing the recovery of the neutrophil influx 2 (Day 2) days after inoculation in order to avoid or limit a systemic bacterial dissemination.
Mice were anesthetized by a mixture of oxygen and isoflurane. The bacterial inoculation was performed on Day 0 by intra-tracheal installation using an endotracheal catheter (50 μl of the suspension, thus 5.106 CFU). The positioning of the catheter in the trachea (instead of in the oesophagus) was checked by a “ring test”. The bacterial count in lungs was checked for all study groups by sacrificing one mouse immediately after inoculation.
Survival observations were assessed twice daily, up to 4 days post infection. The survival rates were compared with the Chi-square test or the Fisher exact test as appropriate. The survival curves were compared by the Kaplan-Meier method.
The aim of this experiment was to assess the survival rate of transiently neutropenic female C3H/HeN mice administered, 3 hours post-inoculation of A. baumannii RCH-69 via intra-tracheal route, with a compound (I) via intra-peritoneal route at 200 mg/kg 3 times daily (every 8 hours) for 3 days alone and in combination with meropenem at 50 mg/kg 3 times daily (every 8 hours) for 3 days or with colistin at 125000 UI/kg 3 times daily (every 8 hours) for 3 days. 85 mice were allocated into 6 groups as follows.
Six vials of 8 mL each containing 94.2 mg/mL of compound (I) and 47.1 mg/mL of PVP 12 PF (Kollidon 12 PF) were prepared and stored between +2° C. and +8° C. Following storage, each vial was homogenized by manual shaking and diluted by 2-fold in 13.72 mg/mL NaCl aqueous solution in order to obtain a 47.1 mg of compound (I)/mL isotonic suspension. In Groups 2, 4 and 5, mice were administered with 100 μL of the 47.1 mg/mL compound (I) suspension.

The next assay deals with A. baumannii SAN-94040. Nature of the assay: Additional mouse model of A. baumannii pneumonia (Example 7): survival. It is filed as in vivo, Acinetobacter baumannii. How it is done:
The bacterial inoculum was prepared in order to obtain a suspension containing 10^8 CFU/mL of Acinetobacter baumannii in saline, unless indicated otherwise.
Experimentations were performed with six-week old female C3H/HeN mice (18-20 g, Harlan Laboratories) because of their particular susceptibility to Acinetobacter baumannii. Each mouse was individually marked and housed in cages containing five animals/cage under ventilated and controlled (temperature and humidity) atmosphere.
The mice were rendered transiently neutropenic by 2 intra-peritoneal (IP) injections of 150 μL of cyclophosphamide (150 mg/kg) 4 (D-4) and 3 (D-3) days before the Acinetobacter baumannii inoculation (Day 0).
Mice were infected with 50 μL the prepared bacterial suspension (inoculums depending on experiment) via intra-tracheal inoculation of mouse. In the study, three animals (Group 1) were sacrificed after inoculation to determine bacterial burden in lungs at the time of infection. Lungs were aseptically removed, weighed and homogenized in 1 mL of 0.9% NaCl. Homogenates were serially diluted and plated on TSA agar. Plates were incubated overnight at 37° C. in 5% CO2. Following incubation, colonies were counted for bacterial growth.
Animal survival was assessed every day for 7 days. Survival data were tabulated and a Probit analysis performed to determine the 50% protective dose (PD50) for each group.
The aim of this experiment was to assess the survival rate of transiently neutropenic female C3H/HeN mice administered, 3 hours post-inoculation of A. baumannii SAN-94040 via intra-tracheal route, with compound (I) via intra-peritoneal route at 200 mg/kg 3 times daily (every 8 hours) for 1 day alone and in combination with meropenem at 30 mg/kg 3 times daily (every 8 hours) for 1 day.

The subject of assay [1] is Staphylococcus aureus (MSSA, MRSA, VISA, VRSA). Particulars: VISA and VRSA strains; cited from earlier work.
Assay [2] relates to MSSA, MRSA and VISA infections. Conditions: murine model; cited from earlier work.
The subject of the next assay is S. aureus. Particulars: healthy human volunteers, Phase I study; cited from earlier work.
[3] abbreviates: 24 h after RCH strain infection.
Setting [4] is: 48 h after RCH strain infection.
Setting [5] is: 72 h after RCH strain infection.
Where [6] appears, read: 96 h after RCH strain infection.
Setting [7] is: Example 7, 24 h after SAN-94040 infection, compound (I) 200 mg/kg, meropenem 30 mg/kg, colistin 125000 UI/kg Q8h I.P. for 1 day.
Where [8] appears, read: Example 7, 24 h after infection, doses as E246.
Where [9] appears, read: Example 7, 48 h after infection, doses as E246.
Setting [10] is: Example 7, 72 h after infection, doses as E246.
Where [11] appears, read: Example 7, 96 h after infection, doses as E246.

For the compound `CCc1cc(O)c(Oc2ccc(C(N)=O)cc2F)cc1F` [compound (I), 4-(4-ethyl-5-fluoro-2-hydroxyphenoxy)-3-fluorobenzamide], the No. of survivors in the assay on A. baumannii RCH-69 (0 h after RCH strain infection) is reported as 13; with A. baumannii RCH-69 (setting [3]), 5; in the assay with A. baumannii RCH-69 (setting [4]), 0; in the assay with A. baumannii RCH-69 (setting [5]), 0; with A. baumannii RCH-69 (setting [6]), 0; in the assay on A. baumannii SAN-94040 (setting [7]), 10. Moreover, the results for the No. of survivors in the assay with A. baumannii SAN-94040 (setting [9]), in the assay with A. baumannii SAN-94040 (setting [10]) and with A. baumannii SAN-94040 (setting [11]) were 8, 6 and 6, respectively. In addition, the “survivors (%)” value in the assay with A. baumannii RCH-69 (0 h after RCH strain infection) came to 100%; with A. baumannii RCH-69 (setting [3]), 38%; with A. baumannii SAN-94040 (setting [8]), 100%; in the assay with A. baumannii SAN-94040 (setting [9]), 80%; in the assay on A. baumannii SAN-94040 (setting [10]), 60%; with A. baumannii SAN-94040 (setting [11]), 60%. For the same compound, the survival rate in the assay with A. baumannii SAN-94040 (Example 7, text, time not stated) is reported as 60%. Besides, in assay [1], the in vitro activity entry is listed as “highly active”. Also, the in vivo activity result in assay [2] is “active in vivo”. Besides, in the assay on S. aureus, the ex vivo activity entry is on record as “ex vivo bactericidal activity”.

On to `C[C@@H](O)[C@H]1C(=O)N2C(C(=O)O)=C(S[C@@H]3CN[C@H](C(=O)N(C)C)C3)[C@H](C)[C@H]12` [meropenem], for which the No. of survivors in the assay on A. baumannii RCH-69 (0 h after RCH strain infection) was determined as 14; with A. baumannii RCH-69 (setting [3]), 14; in the assay on A. baumannii RCH-69 (setting [4]) it was 0; in the assay with A. baumannii RCH-69 (setting [5]), 0; with A. baumannii RCH-69 (setting [6]), 0; with A. baumannii SAN-94040 (setting [7]), 10. The No. of survivors in the assay with A. baumannii SAN-94040 (setting [9]), with A. baumannii SAN-94040 (setting [10]) and in the assay with A. baumannii SAN-94040 (setting [11]) was 10 in each case. Moreover, the “survivors (%)” value in the assay on A. baumannii RCH-69 (0 h after RCH strain infection), with A. baumannii RCH-69 (setting [3]), with A. baumannii SAN-94040 (setting [8]), with A. baumannii SAN-94040 (setting [9]), in the assay with A. baumannii SAN-94040 (setting [10]) and in the assay with A. baumannii SAN-94040 (setting [11]) was 100% each time.
